Patent publication US11866720B2, “Transgenic or non-transgenic plants with mutated protoporphyrinogen oxidase having increased tolerance to herbicides” (priority 2013, dated 2024)
Read-outs that look alike come from different tables or passages of the source.

Experiments:
[1] = test system: transgenic soybean expressing mutated PPO; assay type: in vivo, Glycine max; conditions: T1 soybean, field; as to injury (1-5 point scale): key: 1: no obvious damage (no phytotoxicity); 2: minor amount of leaf damage, plant will survive; 3: moderate amount of leaf damage, plant will survive; 4: severe amount of leaf damage, plant will survive; 5: no surviving plants - all plants dead/dying
[2] = test system: transgenic Arabidopsis thaliana plants expressing wildtype or mutated PPO; assay: Germination / growth inhibition assay of transgenic Arabidopsis T2 seeds in 48-well plates; conditions: growth inhibition seven to ten days after seeding

## CC(C)N(C)S(=O)(=O)NC(=O)c1cc(-n2c(=O)cc(C(F)(F)F)n(C)c2=O)c(F)cc1Cl [Saflufenacil, saflufenacil]
[1]; SDS-10648 AmtuPPX2L R128A_F420I, Saflufenacil 75 g ai/ha, 3 days after treatment
  injury (1-5 point scale): 2
[1]; SDS-10648 AmtuPPX2L R128A_F420I, Saflufenacil 150 g ai/ha, 3 days after treatment
  injury (1-5 point scale): 2
[1]; SDS-10648 LTM386-1 AmtuPPX2L_R128A_F420I, Saflufenacil (75 gai/ha), 3 days after treatment
  Injury rating (1-5 point scale): 3
[1]; SDS-10648 LTM386-1 AmtuPPX2L_R128A_F420I, Saflufenacil (150 gai/ha), 3 days after treatment
  Injury rating (1-5 point scale): 3
[1]; SDS-10656 LTM377-1 AmtuPPX2L_dG210, Saflufenacil (75 gai/ha), 3 days after treatment
  Injury rating (1-5 point scale): 3.5
[1]; SDS-10656 LTM377-1 AmtuPPX2L_dG210, Saflufenacil (150 gai/ha), 3 days after treatment
  Injury rating (1-5 point scale): 3.5
[1]; SDS-10658 LTM386-1 AmtuPPX2L_R128A_F420I, Saflufenacil (75 gai/ha), 3 days after treatment
  Injury rating (1-5 point scale): 3.5
[1]; SDS-10658 LTM386-1 AmtuPPX2L_R128A_F420I, Saflufenacil (150 gai/ha), 3 days after treatment
  Injury rating (1-5 point scale): 3.5
[1]; SDS-10761 LTM383-1 AmtuPPX2L_F420M, Saflufenacil (75 gai/ha), 3 days after treatment
  Injury rating (1-5 point scale): 3
[1]; SDS-10761 LTM383-1 AmtuPPX2L_F420M, Saflufenacil (150 gai/ha), 3 days after treatment
  Injury rating (1-5 point scale): 3
[1]; SDS-10776 LTM386-1 AmtuPPX2L_R128A_F420I, Saflufenacil (75 gai/ha), 3 days after treatment
  Injury rating (1-5 point scale): 2
[1]; SDS-10776 LTM386-1 AmtuPPX2L_R128A_F420I, Saflufenacil (150 gai/ha), 3 days after treatment
  Injury rating (1-5 point scale): 2.5
[1]; SDS-10787 LTM384-1 AmtuPPX2L_R128A_F420L, Saflufenacil (75 gai/ha), 3 days after treatment
  Injury rating (1-5 point scale): 3
[1]; SDS-10787 LTM384-1 AmtuPPX2L_R128A_F420L, Saflufenacil (150 gai/ha), 3 days after treatment
  Injury rating (1-5 point scale): 2.5
[1]; SDS-10791 AmtuPPX2L R128A_F420I, Saflufenacil 75 g ai/ha, 3 days after treatment
  injury (1-5 point scale): 2
[1]; SDS-10791 AmtuPPX2L R128A_F420I, Saflufenacil 150 g ai/ha, 3 days after treatment
  injury (1-5 point scale): 2
[1]; SDS-10791 LTM386-1 AmtuPPX2L_R128A_F420I, Saflufenacil (75 gai/ha), 3 days after treatment
  Injury rating (1-5 point scale): 2
[1]; SDS-10791 LTM386-1 AmtuPPX2L_R128A_F420I, Saflufenacil (150 gai/ha), 3 days after treatment
  Injury rating (1-5 point scale): 2
[1]; SDS-10985 LTM385-1 AmtuPPX2L_R128A_F420M, Saflufenacil (75 gai/ha), 3 days after treatment
  Injury rating (1-5 point scale): 2
[1]; SDS-10985 LTM385-1 AmtuPPX2L_R128A_F420M, Saflufenacil (150 gai/ha), 3 days after treatment
  Injury rating (1-5 point scale): 2
[1]; SDS-10990 LTM385-1 AmtuPPX2L_R128A_F420M, Saflufenacil (75 gai/ha), 3 days after treatment
  Injury rating (1-5 point scale): 2.5
[1]; SDS-10990 LTM385-1 AmtuPPX2L_R128A_F420M, Saflufenacil (150 gai/ha), 3 days after treatment
  Injury rating (1-5 point scale): 2.5
[1]; SDS-10998 LTM387-1 AmtuPPX2L_R128A_F420V, Saflufenacil (75 gai/ha), 3 days after treatment
  Injury rating (1-5 point scale): 2
[1]; SDS-10998 LTM387-1 AmtuPPX2L_R128A_F420V, Saflufenacil (150 gai/ha), 3 days after treatment
  Injury rating (1-5 point scale): 2
[1]; SDS-11011 LTM385-1 AmtuPPX2L_R128A_F420M, Saflufenacil (75 gai/ha), 3 days after treatment
  Injury rating (1-5 point scale): 2
[1]; SDS-11011 LTM385-1 AmtuPPX2L_R128A_F420M, Saflufenacil (150 gai/ha), 3 days after treatment
  Injury rating (1-5 point scale): 2
[1]; SDS-11014 AmtuPPX2L R128A_F420I, Saflufenacil 75 g ai/ha, 3 days after treatment
  injury (1-5 point scale): 2
[1]; SDS-11014 AmtuPPX2L R128A_F420I, Saflufenacil 150 g ai/ha, 3 days after treatment
  injury (1-5 point scale): 2
[1]; SDS-11014 LTM386-1 AmtuPPX2L_R128A_F420I, Saflufenacil (75 gai/ha), 3 days after treatment
  Injury rating (1-5 point scale): 2
[1]; SDS-11014 LTM386-1 AmtuPPX2L_R128A_F420I, Saflufenacil (150 gai/ha), 3 days after treatment
  Injury rating (1-5 point scale): 2
[1]; SDS-11034 AmtuPPX2L L397D_F420V, Saflufenacil 75 g ai/ha, 3 days after treatment
  injury (1-5 point scale): 2
[1]; SDS-11034 AmtuPPX2L L397D_F420V, Saflufenacil 150 g ai/ha, 3 days after treatment
  injury (1-5 point scale): 2
[1]; SDS-11034 LTM387-1 AmtuPPX2L_R128A_F420V, Saflufenacil (75 gai/ha), 3 days after treatment
  Injury rating (1-5 point scale): 3
[1]; SDS-11034 LTM387-1 AmtuPPX2L_R128A_F420V, Saflufenacil (150 gai/ha), 3 days after treatment
  Injury rating (1-5 point scale): 2
[1]; SDS-11035 AmtuPPX2L R128A_F420V, Saflufenacil 75 g ai/ha, 3 days after treatment
  injury (1-5 point scale): 2
[1]; SDS-11035 AmtuPPX2L R128A_F420V, Saflufenacil 150 g ai/ha, 3 days after treatment
  injury (1-5 point scale): 2
[1]; SDS-11035 LTM387-1 AmtuPPX2L_R128A_F420V, Saflufenacil (75 gai/ha), 3 days after treatment
  Injury rating (1-5 point scale): 2
[1]; SDS-11035 LTM387-1 AmtuPPX2L_R128A_F420V, Saflufenacil (150 gai/ha), 3 days after treatment
  Injury rating (1-5 point scale): 2
[1]; SDS-11036 LTM386-1 AmtuPPX2L_R128A_F420I, Saflufenacil (75 gai/ha), 3 days after treatment
  Injury rating (1-5 point scale): 2.5
[1]; SDS-11036 LTM386-1 AmtuPPX2L_R128A_F420I, Saflufenacil (150 gai/ha), 3 days after treatment
  Injury rating (1-5 point scale): 2.5
[1]; SDS-11052 AmtuPPX2L R128A_F420M, Saflufenacil 75 g ai/ha, 3 days after treatment
  injury (1-5 point scale): 2
[1]; SDS-11052 AmtuPPX2L R128A_F420M, Saflufenacil 150 g ai/ha, 3 days after treatment
  injury (1-5 point scale): 2
[1]; SDS-11052 LTM385-1 AmtuPPX2L_R128A_F420M, Saflufenacil (75 gai/ha), 3 days after treatment
  Injury rating (1-5 point scale): 3
[1]; SDS-11052 LTM385-1 AmtuPPX2L_R128A_F420M, Saflufenacil (150 gai/ha), 3 days after treatment
  Injury rating (1-5 point scale): 3
[1]; SDS-11105 LTM387-1 AmtuPPX2L_R128A_F420V, Saflufenacil (75 gai/ha), 3 days after treatment
  Injury rating (1-5 point scale): 2.5
[1]; SDS-11105 LTM387-1 AmtuPPX2L_R128A_F420V, Saflufenacil (150 gai/ha), 3 days after treatment
  Injury rating (1-5 point scale): 2.5
[1]; SDS-11110 LTM387-1 AmtuPPX2L_R128A_F420V, Saflufenacil (75 gai/ha), 3 days after treatment
  Injury rating (1-5 point scale): 2.5
[1]; SDS-11110 LTM387-1 AmtuPPX2L_R128A_F420V, Saflufenacil (150 gai/ha), 3 days after treatment
  Injury rating (1-5 point scale): 2.5
[1]; SDS-11111 LTM386-1 AmtuPPX2L_R128A_F420I, Saflufenacil (75 gai/ha), 3 days after treatment
  Injury rating (1-5 point scale): 2.5
[1]; SDS-11111 LTM386-1 AmtuPPX2L_R128A_F420I, Saflufenacil (150 gai/ha), 3 days after treatment
  Injury rating (1-5 point scale): 2.5
[1]; SDS-11118 LTM386-1 AmtuPPX2L_R128A_F420I, Saflufenacil (75 gai/ha), 3 days after treatment
  Injury rating (1-5 point scale): 2
[1]; SDS-11118 LTM386-1 AmtuPPX2L_R128A_F420I, Saflufenacil (150 gai/ha), 3 days after treatment
  Injury rating (1-5 point scale): 2
[1]; Wildtype Jake, Saflufenacil (75 gai/ha), 3 days after treatment (Table 11e)
  Injury rating (1-5 point scale): 5
[1]; Wildtype Jake, Saflufenacil (75 gai/ha), 3 days after treatment (Table 11d)
  Injury rating (1-5 point scale): 5
[1]; Wildtype Jake, Saflufenacil (150 gai/ha), 3 days after treatment (Table 11e)
  Injury rating (1-5 point scale): 5
[1]; Wildtype Jake, Saflufenacil (150 gai/ha), 3 days after treatment (Table 11d)
  Injury rating (1-5 point scale): 5
[1]; wild type, Saflufenacil 75 g ai/ha, 3 days after treatment
  injury (1-5 point scale): 5
[1]; wild type, Saflufenacil 150 g ai/ha, 3 days after treatment
  injury (1-5 point scale): 5
[1]; wild type, saflufenacil: treatment 1 150 g ai/ha, treatment 2 0, 7 DAT
  Injury rating (1-5 point scale): 5
[1]; wild type, saflufenacil: treatment 1 300 g ai/ha, treatment 2 300 g ai/ha, 14 DAT
  Injury rating (1-5 point scale): 5
[2]; transgenic Arabidopsis AMATU_PPO2_F420I
  Relative tolerance rate as compared to a non-transgenic Arabidopsis plant (non-transgenic = 1.0): 80
[2]; transgenic Arabidopsis AMATU_PPO2_F420L
  Relative tolerance rate as compared to a non-transgenic Arabidopsis plant (non-transgenic = 1.0): 192
[2]; transgenic Arabidopsis AMATU_PPO2_F420M
  Relative tolerance rate as compared to a non-transgenic Arabidopsis plant (non-transgenic = 1.0): 168
[2]; transgenic Arabidopsis AMATU_PPO2_R128A_F420I
  Relative tolerance rate as compared to a non-transgenic Arabidopsis plant (non-transgenic = 1.0): 1200
[2]; transgenic Arabidopsis AMATU_PPO2_R128A_F420L
  Relative tolerance rate as compared to a non-transgenic Arabidopsis plant (non-transgenic = 1.0): 1200
[2]; transgenic Arabidopsis AMATU_PPO2_R128A_F420M
  Relative tolerance rate as compared to a non-transgenic Arabidopsis plant (non-transgenic = 1.0): 1160
[2]; transgenic Arabidopsis AMATU_PPO2_R128L
  Relative tolerance rate as compared to a non-transgenic Arabidopsis plant (non-transgenic = 1.0): 160
[2]; transgenic Arabidopsis AMATU_PPO2_dG210
  Relative tolerance rate as compared to a non-transgenic Arabidopsis plant (non-transgenic = 1.0): 100
[2]; transgenic Arabidopsis AMATU_PPO2_dG210_R128L
  Relative tolerance rate as compared to a non-transgenic Arabidopsis plant (non-transgenic = 1.0): 1200
[2]; transgenic Arabidopsis AMATU_PPO2_wt
  Relative tolerance rate as compared to a non-transgenic Arabidopsis plant (non-transgenic = 1.0): 10
